Measured values published in article PMC6149971, “In Vivo and In Vitro Activities and ADME-Tox Profile of a Quinolizidine-Modified 4-Aminoquinoline: A Potent Anti-P. falciparum and Anti-P. vivax Blood-Stage Antimalarial” (Molecules : A Journal of Synthetic Chemistry and Natural …, 2017).

Assays:
[1] = Microsome stability and metabolism studies, rat; assay type: in vitro ADME; design: key: +: Metabolic Products Detected In Vitro and In Vivo; ND: Not detectable; settings: (−)-AM1 1 μM, at 30 min
Protocol: Samples from the metabolic stability and metabolism studies were analyzed under the following conditions: UPLC interfaced with a Premiere XE triple Quadrupole Waters for stability studies, and Bruker Daltonics Ion Trap HCT Ultra for metabolic studies. A gradient from 2% to 100% (Water, MeOH, 5 mM Ammonium Acetate) over 2 min (stability) or 12 min (metabolism) in a C18 BEH (dimensions 1 by 50 mm for stability and 2.1 by 100 mm for metabolism, 1.7 µm column, 45 °C temperature, flow rate 0.5 mL/min) was used. For stability studies, the detection was performed in MRM (ESI positive, Q1/Q3 330.16/152.00, Cone Voltage 45 V; Extractor 5 V; Capillary 3.4 kV), while for metabolism studies, analysis was performed in Auto MS/MS mode (ESI positive; Capillary 109 V; Dry Temp 350 °C; Nebulizer 30 psi; Dry gas 10 L/min; HV capillary 500 V; Mass Accu time 500 µs; Mass range MS scan 100–600 amu, MS/MS 50–450 amu).
For stability and metabolism studies, test compounds were dissolved in DMSO, diluted at the final concentration of 1 µM, and pre-incubated in duplicate for 10 min at 37 °C in potassium phosphate buffer, pH 7.4, 3 mM MgCl2, with rat, mouse, and human hepatic microsomes (Xenotech Europe, Pfungstadt, Germany) at the final concentration of 0.5 mg/mL. The reaction was then started by adding the cofactor mixture of NADP, Glc6P, and G6P-DH, in the presence of UDPGA 1 mM in human microsomes to promote glucuronide formation. Acetonitrile (with verapamil as internal standard) was added to the samples at the times time 0 and 30 min to stop the reaction. Samples were then centrifuged and the supernatants analysed and quantified by LC-MS/MS. Reference compounds of known metabolic stability, 7-ethoxycoumarin (7-EC) and propranolol, were used as controls.
The percentage of the area of test compounds remaining after 30 min incubation was calculated in respect to the area of compounds at time = 0 min. […] Samples were re-analyzed by acquiring the daughter scan of the potential metabolites found during the full scan acquisition.

[2] = Metabolites in mouse plasma after oral treatment; assay type: in vivo; design: key: +: Metabolic Products Detected In Vitro and In Vivo; ND: Not detectable; settings: after 50 mg/kg (−)-AM1 oral gavage, at 120 min
Protocol: A representative chromatogram in the mouse and the MS spectra are shown in Figure S1 (Supplementary Materials), while the proposed structures of metabolites in all the species, together with the retention times, are shown in Table 3. In the same table, the metabolites found in mouse plasma after 50 mg/kg oral treatment are included. The retention times and [M + H]^+ of the metabolites are the same for all three species.
The parent [M + H]^+ = 330 and the metabolites [M + H]^+ = 346 and [M + H]^+ = 344 were also detected in the mouse plasma samples collected after oral treatment of CD1 mice with 50 mg/kg of (−)-AM1 (Figure S4).
Samples from the metabolic stability and metabolism studies were analyzed under the following conditions: UPLC interfaced with a Premiere XE triple Quadrupole Waters for stability studies, and Bruker Daltonics Ion Trap HCT Ultra for metabolic studies. A gradient from 2% to 100% (Water, MeOH, 5 mM Ammonium Acetate) over 2 min (stability) or 12 min (metabolism) in a C18 BEH (dimensions 1 by 50 mm for stability and 2.1 by 100 mm for metabolism, 1.7 µm column, 45 °C temperature, flow rate 0.5 mL/min) was used. […]

[3] = molecular target: T1, CYP1A2 (Homo sapiens, UniProt P05177); experiment: in vitro
T1 sequence (P05177 1-516): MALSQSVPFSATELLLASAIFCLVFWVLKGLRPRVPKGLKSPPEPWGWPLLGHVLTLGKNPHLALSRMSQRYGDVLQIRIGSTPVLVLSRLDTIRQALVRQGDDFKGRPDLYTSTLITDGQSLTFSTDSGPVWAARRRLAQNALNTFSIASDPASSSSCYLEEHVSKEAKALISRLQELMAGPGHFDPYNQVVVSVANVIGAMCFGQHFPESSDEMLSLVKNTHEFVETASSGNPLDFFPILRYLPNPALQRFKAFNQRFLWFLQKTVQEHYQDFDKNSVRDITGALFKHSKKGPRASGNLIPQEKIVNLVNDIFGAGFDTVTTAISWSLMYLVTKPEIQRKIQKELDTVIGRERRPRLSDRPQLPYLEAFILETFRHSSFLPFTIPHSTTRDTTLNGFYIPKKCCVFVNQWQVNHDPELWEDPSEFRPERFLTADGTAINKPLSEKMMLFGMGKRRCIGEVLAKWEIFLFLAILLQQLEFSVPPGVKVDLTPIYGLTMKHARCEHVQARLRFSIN

[4] = tested on: P. falciparum W-2 (CQ-R); design: method as in PMID 22901673; settings: 72 h incubation, pLDH method, mean of 3 experiments; data already published; cited from earlier work
[5] = molecular target: CYP2C9 (Homo sapiens, UniProt P11712); experiment: in vitro
Chain of CYP2C9 (P11712 whole entry): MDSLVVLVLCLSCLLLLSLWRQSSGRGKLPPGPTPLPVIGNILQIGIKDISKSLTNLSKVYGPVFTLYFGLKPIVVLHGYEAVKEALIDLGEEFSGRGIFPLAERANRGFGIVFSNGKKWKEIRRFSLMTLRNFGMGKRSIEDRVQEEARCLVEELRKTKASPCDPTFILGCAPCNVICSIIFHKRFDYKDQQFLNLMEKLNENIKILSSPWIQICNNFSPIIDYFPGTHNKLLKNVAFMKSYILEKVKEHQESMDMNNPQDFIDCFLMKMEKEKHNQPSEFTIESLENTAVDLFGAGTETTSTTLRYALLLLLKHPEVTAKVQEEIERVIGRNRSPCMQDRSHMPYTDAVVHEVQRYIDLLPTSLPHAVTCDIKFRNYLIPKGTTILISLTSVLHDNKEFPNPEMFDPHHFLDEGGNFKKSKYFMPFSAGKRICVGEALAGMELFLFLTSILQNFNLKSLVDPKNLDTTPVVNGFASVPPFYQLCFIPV

[6] = tested on: P. berghei ANKA transmission stages in Anopheles stephensi; experiment: Transmission-blocking test, P. berghei/A. stephensi model; assay type: in vivo; settings: 50 mg/kg oral
Protocol: (−)-AM1 was also tested in transmission-blocking and prophylactic studies using the P. berghei/A. stephensi model as described, with a few modifications.
For the transmission-blocking test, four BALB/c female mice (18–20 g) were infected i.p. with 10^7 P. berghei-infected red blood cells. Four days later, once confirmed for gametocyte carriage, two mice were treated with 50 mg/kg (−)-AM1, through the oral administration of 500 µL of a methylcellulose suspension, obtained by dissolving a 20 mg/mL ethanol stock solution in 0.5% methylcellulose to a final 9% ethanol concentration. Two mice received the vehicle only as controls. One hour after the treatment, mice were anesthetized and exposed to the bites of 100 sugar-starved female mosquitoes, at 20 °C. Ten days after the blood meal, samples of mosquito midguts from each treatment (n = 40) were dissected and P. berghei oocysts were manually counted using light microscopy at 400× magnification. Oocyst numbers were log-transformed and the geometric means were compared using the Student’s t-test.

[7] = Pharmacokinetics in CD-1 mice after oral administration; settings: mouse, in vivo
[8] = tested on: P. falciparum D10 (CQ-S); design: method as in PMID 22901673; settings: 72 h incubation, pLDH method, mean of 3 experiments; data already published; cited from earlier work

With Clc1ccc2c(NC[C@@H]3CCCN4CCCC[C@H]34)ccnc2c1 [(−)-AM1, 7-chloro-N-(((1S,9aR)-octahydro-1H-quinolizin-1-yl)methyl)quinolin-4-amine] the “Metabolic products detected, in vitro microsomes, rat” value [1] was “+”, the “Metabolic products detected, in vivo plasma levels, mouse” value [2] was “+” and the inhibition at 3 µM [3] was less than 5%. The IC50 [4] was 53.7 nM, the inhibition at 3 µM [5] was less than 5% and the “infection intensity, average number of oocysts per midgut” value ([6]; BALB/c mice, read after 10 days, control 39.17, p = 0.24) was 54.11 (CI95 39.77–68.45) oocysts. The transmission-blocking activity ([6]; P. berghei/A. stephensi model) was “does not show transmission-blocking or prophylactic activity”, the “dose proportionality of oral pharmacokinetics” value [7] was “dose proportionality was displayed” and the IC50 [8] was 24 nM.
